Measured values: the SangsterLogP compilation

Test: not given
Details: not given

| logP | Structure (SMILES) |
| --- | --- |
| 1.92 | COc1ccnc2c([N+](=O)[O-])cccc12 |
| 1.41 | COc1cnnc2ccccc12 |
| 2.64 | CCOC(=O)c1ccc2ncccc2c1 |
| 2.61 | c1ccc2c(NC3CCCC3)ncnc2c1 |
| 1.8 | CCCCOc1cccnn1 |
| 1.98 | Cc1cnnc2cc(Cl)ccc12 |
| 2.31 | CCOC(=O)c1cc2ccc(CC)cc2nn1 |
| 3.22 | CN(C)c1nnc(-c2ccccc2)c2ccccc12 |
| 2.75 | c1ccc(Nc2ccccn2)cc1 |
| 3.15 | c1ccc(Sc2cccnc2)cc1 |
| 3.5 | COc1nc(-c2ccccc2)c2ccccc2n1 |
| 3.1 | Cc1nc(-c2ccccc2)c2ccccc2n1 |
| 0.89 | COc1ccc(Cl)nn1 |
| 3.58 | CNc1nc(-c2ccccc2)c2ccccc2n1 |
| 2.81 | CN(C)c1ccc2ccccc2n1 |
| 2.33 | O=S(=O)(c1ccccc1)c1cccc2cccnc12 |

| logP | Structure (SMILES) |
| --- | --- |
| 2.71 | c1ccc(-c2ncnc3ccccc23)cc1 |
| 1.57 | Clc1cc2ccccc2nn1 |
| 2.45 | c1ccc(Oc2ccccn2)cc1 |
| 1.93 | c1ccc(-c2ncncn2)cc1 |
| 2.92 | c1ccc2c(N3CCCCC3)ncnc2c1 |
| 2.29 | CCCOc1cncc(C)n1 |
| 1.04 | Nc1cnnc2ccccc12 |
| 1.67 | NNc1ncnc2ccccc12 |
| 1.96 | O=C(c1ccccc1)c1ccccn1 |
| 1.97 | COc1ncnc2ccccc12 |
| 2.81 | COc1cc(C)nc2ccccc12 |
| 1.72 | Brc1cc2ccccc2nn1 |
| 1.31 | Nc1ccnc2c([N+](=O)[O-])cccc12 |
| 1.43 | CN(C)c1ccccn1 |
| 1.55 | CC(=O)Nc1ccc2cccnc2c1 |

Second part, the molecule before the results:

| Structure (SMILES) | logP |
| --- | --- |
| Cc1cccnc1 | 1.19 |
| Nc1nncc2ccccc12 | 0.82 |
| O=Cc1ccc2ccccc2n1 | 2.14 |
| Nc1nc(-c2ccccc2)c2ccccc2n1 | 2.95 |
| N#Cc1ccc2ccccc2n1 | 1.6 |
| CSc1ncc2ccccc2n1 | 2.5 |
| NC(=O)c1cnc2ccccc2c1 | 1.06 |
| CC(C)(C)c1ccccn1 | 2.4 |
| CSc1nc(C)cc(C)n1 | 1.86 |
| N#Cc1cnc2ccccc2c1 | 1.57 |
| Cc1cccc2c(N)cnnc12 | 1.57 |
| Ic1ccc2ccccc2n1 | 3.04 |
| CN(C)C(=O)c1cnc2ccccc2c1 | 0.99 |
| Cc1cnnc2ccc(Cl)cc12 | 1.96 |
| COc1nnc(OC)c2ccccc12 | 2.22 |
| CC(=O)c1cc2ccccc2nn1 | 1.44 |
| CC(=O)c1cnc2ccccc2c1 | 1.76 |
| Nc1ncnc2ccccc12 | 1.28 |
| COC(=O)c1cnc2ccccc2c1 | 2.25 |
| c1ccc(-c2nnco2)cc1 | 1.31 |
| Clc1ccc2cncnc2c1 | 1.74 |
| CSc1ccccn1 | 1.71 |
| O=[N+]([O-])c1cc2ccccc2nn1 | 0.73 |
| CN(C)c1ccc(N(C)C)nn1 | 0.99 |
| Nc1cc2ccccc2nn1 | 1 |
| CSc1ccc(SC)nn1 | 1.85 |
| NC(=O)c1cnc2ccccc2n1 | 0.98 |
| O=CNc1cccc2cccnc12 | 1.8 |

Test: method code SF, from DOI: 10.1002/qsar.19830020303
Details: not given

| logP | Structure (SMILES) |
| --- | --- |
| -0.17 | COC(=O)c1cnccn1 |
| 0.67 | NC(=S)c1cccnc1 |
| 0.56 | NS(=O)(=O)c1ccc2ncccc2c1 |
| 0.62 | Cc1cc(NN)ncn1 |
| 0.39 | Cc1cc(N)nc(C)n1 |
| 0.29 | CN(C)c1cccnn1 |
| -0.34 | NC(=S)c1ncccn1 |
| 0.98 | CN(C)c1ccc(Cl)nn1 |
| 0.12 | CCOC(=O)c1ccc(Cl)nn1 |
| -0.49 | NS(=O)(=O)c1cccnc1 |
| -0.09 | CN(C)c1ccnnc1 |
| -0.48 | CN(C)C(=O)c1cccnc1 |

Continued, molecule first:

| Structure (SMILES) | logP |
| --- | --- |
| NC(=O)c1ccncc1 | -0.28 |
| Nc1ccc(Cl)nn1 | 0.35 |
| NNC(=O)c1ccc2ncccc2c1 | 0.35 |
| CC(=O)Nc1ccncc1 | 0.5 |
| CS(=O)(=O)c1ccc2ncccc2c1 | 0.7 |
| CSc1ccc2ccccc2n1 | 3.04 |
| CC(=O)Nc1ncccn1 | -0.75 |
| NC(=O)c1ccc(Cl)nn1 | 0 |
| Cc1cc(N)ncn1 | 0.19 |

Same assay, conditions: pH 7.4

| logD | Structure (SMILES) |
| --- | --- |
| 2.08 | Oc1cnc2ccccc2c1 |

Test: method code SF-AS, from DOI: 10.1002/qsar.19830020303
Details: not given

| logP | Structure (SMILES) |
| --- | --- |
| 2.01 | Cc1cc(C)nc(C)c1 |
